The values that follow come from patent US5928931A, “Isolation, purification and cloning of retinol dehydratase” (Cornell Research Foundation, Inc., priority 1997, dated 1999).

For one test, the system named is NIH 3T3 cells. In words: Activation of resting serum-starved NIH 3T3 cells ([3H]thymidine incorporation). Format: cell-based. Conditions: for activation of growth arrested cells (thymidine incorporation over 24 hours): cells deprived of serum for 3 or 4 days; for entry of treated cells into the S phase: data not shown; for time from the start of activation to entry of the S phase: 5% fetal calf serum; for concentrations that activate resting 3T3 cells (dose-response): four day serum-starved cells, FIG. 6B. Here is the method:
FIGS. 6A and 6B show the activation of resting NIH 3T3 cells. In FIG. 6(a), one to four day serum-starved cells activated by serum, retinol, 14-HRR, and the peptide growth factors epidermal growth factor ("EGF") and platelet derived growth factor ("PDGF") are shown. […] NIH 3T3 cells were grown to confluence in Dulbecco's minimal essential medium ("DMEM") containing 10% fetal calf serum in 96-well microliter plates. All media were supplemented with 2 mM glutamine and 100 U/ml of penicillin/streptomycin. Cells were washed once with phosphate-buffered saline solution and incubated for one to four days in 200 μl/well of DMEM media/0.1% fetal calf serum ("starvation media"). On the indicated day, starvation media was replaced with 200 μl/well of insulin, transferrin, linoleic acid, bovine serum albumin ("ITLB") media, with or without fetal calf serum, retinoids, or peptide growth factors at the indicated concentrations. ITLB media is RPMI media (Gibco BRL, Grand Island, N.Y.) containing […] bovine serum albumin (1.2 mg/ml), linoleic acid (10^-6 M), bovine insulin (5 μg/ml), and transferrin (5 μg/ml). [^3 H]thymidine (1.2 μCi per well) was added at the beginning of the experiment, and the thymidine incorporation was determined after 24 h. The data represent the mean of triplicate measurements and standard deviations ("SD") were ≤17%. Recombinant PDGF (B/B) and EGF were purchased from Sigma Chemical Company or Boehringer Mannheim Corporation. Anhydroretinol was synthesized by acid catalyzed dehydration of all-trans-retinol. Embree, J. Biol. Chem. 128:187-98 (1939) and Derguini, et al., Angew. Chem. Int. Ed. Engl. 33:1839-41 (1994), which are hereby incorporated by reference. All-trans-14-hydroxy-4,14-retro-retinol was synthesized as described. Derguini, et al., J. Biochem. 33:623-28 (1994), which is hereby incorporated by reference.
Cells starved for 4 days in DMEM/0.1% fetal calf serum were activated with 5% fetal calf serum, 2 μM retinol, or 2 μM 14-HRR, and the cumulative thymidine incorporation was determined at the indicated time points. Δcpm corresponds to the increase in [^3 H]thymidine incorporation in the two hour period before the time point shown. This method is described in FIG. 6. The data in FIG. 7 represents the mean of quadruplicate measurements and SDs were ≤15%.
Cells starved for 4 days in DMEM/0.1% fetal calf serum were activated in 100 μl/well ITLB medium. At the indicated time points, anhydroretinol was added in 100 μl ITLB medium. This method is described in FIG. 6. The data in FIG. 8 represents the mean of quadruplicate measurements and SDs were ≤20%.
Cells starved for 4 days in DMEM/0.1% fetal calf serum were activated with 5% fetal calf serum, 2 μM retinol, or 2 μM 14-HRR. At the time points, 10^-5 M anhydroretinol was added. The cumulative [^3 H]thymidine incorporation was determined after 24 hours. […] The method is described in FIG. 6. The data in FIG. 9 represents the mean of triplicate measurements and SDs were ≤20%.
Confluent NIH 3T3 cells were starved for 1 to 4 days in medium containing 0.1% serum. Then, these starved cells were treated with serum, PDGF, EGF, retinol, or 14-HRR. Activation was quantitated by measuring the [^3 H] thymidine incorporated into newly synthesized DNA during the subsequent 24 hours (FIG. 6A). After a single day of serum starvation, the cells were not yet arrested, and the control cells incorporated the same amount of thymidine as the treated cells. After 2 days of serum deprivation, untreated cells incorporated slightly less thymidine, while cells treated with serum, peptide growth factors and retinoids maintained the original level of thymidine incorporation. In contrast, cells deprived of serum for 3 or 4 days were fully growth arrested; untreated cells incorporated little or no thymidine. […] All subsequent activation experiments were conducted using 4 day starved NIH 3T3 cells.
Background: Incorporation of labelled thymidine or its analogues reports DNA synthesis.

The target of test [1] is T1, retinol dehydratase (Spodoptera frugiperda, UniProt Q26490).
T1 sequence (Q26490 1-351): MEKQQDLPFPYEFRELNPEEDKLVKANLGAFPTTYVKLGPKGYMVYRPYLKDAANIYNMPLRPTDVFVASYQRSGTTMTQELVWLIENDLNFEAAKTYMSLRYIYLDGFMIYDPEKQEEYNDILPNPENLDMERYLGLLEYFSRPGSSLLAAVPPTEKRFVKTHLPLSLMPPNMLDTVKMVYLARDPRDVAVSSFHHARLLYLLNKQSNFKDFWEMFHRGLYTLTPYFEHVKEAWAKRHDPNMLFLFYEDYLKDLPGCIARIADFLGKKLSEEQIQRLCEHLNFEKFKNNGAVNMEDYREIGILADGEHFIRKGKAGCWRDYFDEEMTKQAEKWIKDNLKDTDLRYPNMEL
In words: Retinol dehydratase assay ([3H]-retinol to [3H]-AR, HPLC radiomatic detection); kinetic studies. The test is classed as biochemical. As for the experimental part:
20-50 μl aliquots of supernatant/column fractions were incubated with 1 μCi of [^3 H]-retinol and 20 μl of high speed supernatant from sonicated Sf-9 cells in 200 μl assay buffer (20 mM Tris.Cl pH 7.5, 150 mM NaCl, I mM MgCI2) for 15-60 minutes at 24° C. […] Samples were delipidated and [^3 H]-AR production quantified by a liquid scintillation radiomatic detector in series with HPLC gradient elution (20 mM Tris pH 7.4/methanol/chloroform) from a C-18 Reverse Phase 201TP54 column (Vydac, Separations Group, Hesperia, Calif.) as described by McClean et al., Clin. Chem., 28:693-96 (1982) and Derguini et al., Angew. Che. Int. Ed. Engl., 33:1839-41 (1994), which are hereby incorporated by reference.
Kinetic studies were performed with native retinol dehydratase (0.1 μg/assay) and ^3 H-retinol in the presence of constant substrate carrier protein concentrations, either delipidated BSA or recombinant cellular retinol binding protein ("CRBP"). The initial rate of AR synthesis at different substrate concentrations was determined by radiomatic detection of ^3 H-AR after HPLC separation.
Carrier protein for retinol (delipidated bovine serum albumin or recombinant human CRBP) was added to reduce nonspecific binding and micelle formation.

The test system of test [2] is lymphocyte and HL-60 cell. Conditions: Eppinger et al. 1993, Buck et al. 1993; cited from earlier work.
In another test the test system is B lymphocyte. The settings on record: Buck et al. 1993; cited from earlier work.
The next test relates to resting T lymphocytes. Conditions: Buck et al. 1993; cited from earlier work.
A further test deals with Sf-21 cells. Format: cell-based, Spodoptera frugiperda. Here is the method: 10^7 Spodoplera frugiperda Sf-21 cells or Sf-9 cells were incubated with 1 μCi^3 H-retinol in Grace's insect cell media for 6 hours. Delipidated and radiolabelled retinoid metabolites were analyzed by radiomatic detection after separation by HPLC.
Che. Int. Ed. Engl., 33:1839-41 (1994), which is hereby incorporated by reference.

A further test deals with BSA (Bos taurus, UniProt P02769). The settings on record: published value; read-out: BSA Kd for retinol; cited from earlier work.
BSA, sequence (P02769 25-607): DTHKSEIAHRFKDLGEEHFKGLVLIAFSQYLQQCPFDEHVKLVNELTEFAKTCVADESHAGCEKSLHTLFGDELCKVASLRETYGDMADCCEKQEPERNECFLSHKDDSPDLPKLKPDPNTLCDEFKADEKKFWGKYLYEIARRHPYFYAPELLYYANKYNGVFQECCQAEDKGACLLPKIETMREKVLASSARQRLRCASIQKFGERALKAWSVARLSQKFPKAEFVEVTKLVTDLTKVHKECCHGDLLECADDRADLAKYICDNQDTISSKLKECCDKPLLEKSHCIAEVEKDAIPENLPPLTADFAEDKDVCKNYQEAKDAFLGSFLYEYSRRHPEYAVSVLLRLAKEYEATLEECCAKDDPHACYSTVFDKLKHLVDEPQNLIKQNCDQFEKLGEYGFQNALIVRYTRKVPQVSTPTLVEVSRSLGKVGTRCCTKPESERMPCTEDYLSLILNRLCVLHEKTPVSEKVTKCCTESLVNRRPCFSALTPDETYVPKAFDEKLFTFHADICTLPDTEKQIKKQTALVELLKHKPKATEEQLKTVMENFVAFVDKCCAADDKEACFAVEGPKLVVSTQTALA
Test [3] concerns the target T1, retinol dehydratase. In words: Fluorimetric titration of recombinant retinol dehydratase with retinol (direct binding, no cofactor). Here is the method: Binding was monitored by following the fluorescence enhancement of retinol (excitation--330 nm; emission--480 nm, open circles). The fluorescence contribution of free retinol was determined by titration with retinol in the absence of protein (open squares), analyzed by linear regression analysis (dashed line) and subtracted from the titration data to give the corrected titration binding curve (closed circles). The data were fitted (solid line) using an equation derived from simple binding theory.
Retinol is an efficient fluorophore and its interactions with proteins are often accompanied by a marked increase in its fluorescence. […]
Recombinant retinol dehydratase (lμM) was titrated with retinol from a concentrated solution in ethanol (final ethanol concentration <2.0%). Binding was monitored by following the fluorescence enhancement of retinol (excitation--330 nm; emission--480 nm, open circles). The fluorescence contribution of free retinol was determined by titration with retinol in the absence of protein (FIG. 5B, open squares), analysed by linear regression analysis (FIG. 5B, dashed line) and subtracted from the titration data to give the corrected titration binding curve (FIG. 5B, closed circles). […]

For a further test, the target named is T2, CRBP-1 (Rattus norvegicus, UniProt P02696).
T2 sequence (P02696 1-135): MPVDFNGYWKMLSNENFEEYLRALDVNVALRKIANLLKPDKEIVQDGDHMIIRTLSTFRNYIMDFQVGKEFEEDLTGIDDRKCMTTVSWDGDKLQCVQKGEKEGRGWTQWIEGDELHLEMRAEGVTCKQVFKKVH
The settings on record: published value; read-out: CRBP Kd for retinol; cited from earlier work.

The mark [4] stands for this setting: 4 day starved cells, 2 μM retinol or 2 μM 14-HRR.

“Also recorded” adds a separate entry of the source. Like-named read-outs stand apart in the source and are kept apart here.

For the compound PDGF, in the test on NIH 3T3 cells, the “activation of growth arrested cells (thymidine incorporation over 24 hours)” value is reported as “had no effect” and the “entry of treated cells into the S phase” value is “did not enter the S phase”. In addition, in the test on NIH 3T3 cells (≤1000 ng/ml), the “activation of resting cells” value is “unable to activate”.
For `Nc1ncnc2c1ncn2[C@@H]1O[C@H](COP(=O)(O)OS(=O)(=O)O)[C@@H](OP(=O)(O)O)[C@H]1O` [PAPS, 3'-phosphoadenosine 5'-phosphosulfate], at retinol dehydratase [1] (purified recombinant retinol dehydratase, [3H]-retinol assay), the “restoration of retinol dehydratase activity (cofactor)” value was “necessary and sufficient to restore activity”.
Regarding `Nc1ncnc2c1ncn2[C@@H]1O[C@H](COP(=O)(O)OS(=O)(=O)O)[C@@H](O)[C@H]1O` [adenosine 5'-phosphosulfate], at retinol dehydratase [1] (purified recombinant retinol dehydratase, concentration range tested 1-10 μM), the “activity as cofactor in the [3H]-retinol assay” value is “not active”.
Turning to `CCCCCCCCCCCCCC(=O)O[C@@H]1[C@@H](C)[C@@]2(O)[C@@H](C=C(CO)C[C@]3(O)C(=O)C(C)=C[C@@H]23)[C@@H]2C(C)(C)[C@]12OC(C)=O` [phorbol ester], the “entry of treated cells into the S phase” value in the test on NIH 3T3 cells is on record as “did not enter the S phase”. Besides, the “activation of resting cells” value in the test with NIH 3T3 cells (≤1 μM) is recorded as “unable to activate”.
“Insulin: bovine insulin, 5 μg/ml in ITLB medium”: in the test on NIH 3T3 cells (insulin 5 μg/ml in the defined medium, alone), the “activation of resting 3T3 cells” value is given as “did not activate”.
On to `C=C/C(C)=C/C=C/C(C)=C/C=C1/C(C)=CCCC1(C)C` [anhydroretinol], for which the “effect on retinol and 14-HRR supported lymphocyte and HL-60 cell growth” value in [2] is given as “competitively inhibits”. In addition, the “reaction rate (product inhibition)” value on retinol dehydratase [1] (ratio of 50:1 for anhydroretinol to retinol) is listed as “halved”. For the same compound, the “effect on B lymphocyte proliferation” value in the test on B lymphocyte is “blocks”. Also, the “inhibition of activation by retinol and 14-HRR” value in the test with NIH 3T3 cells (3T3 cells) is given as “competitively inhibits”. For the same compound, the “time after activation within which added anhydroretinol prevents activation” value in the test on NIH 3T3 cells (10^-5 M anhydroretinol, activation by 5% fetal calf serum, 2 μM retinol or 2 μM 14-HRR) is at most 90 min. In addition, the “inhibition of activation by serum” value with NIH 3T3 cells (4 day starved cells, FIG. 8) is “blocks activation by serum in a dose-dependent manner; also recorded: competitively inhibits”. The “block of activation when added late” value with NIH 3T3 cells (anhydroretinol added after 2 hours) is listed as “unable to block activation”. The “effect on activation of resting T lymphocytes” value with resting T lymphocytes is “blocks”.
As to `O=CCCCC=O` [glutaraldehyde], in the test on Sf-21 cells (2% glutaraldehyde fixation), the “inhibition of cellular production of AR compared to controls” value came to 90%.
Consider `CC1=C(/C=C/C(C)=C/C=C/C(C)=C/C(=O)O)C(C)(C)CCC1` [retinoic acid], for which the “activation of resting cells” value in the test on NIH 3T3 cells (≤5 μM) is “unable to activate”.
For orientation: Kd means the free concentration of one partner at which half of the binding sites on the other are occupied at equilibrium, for simple one-to-one binding. `CC1=C(/C=C/C(C)=C/C=C/C(C)=C/CO)C(C)(C)CCC1` [retinol]: the Kd on BSA was 1000 nM; at retinol dehydratase [3] (n=3, read-out: range of equilibrium dissociation constant (Kd)) it was 2 to 15 nM; at retinol dehydratase [3] (recombinant enzyme 0.5-1 μM, no cofactor, to be considered an upper limit, read-out: equilibrium dissociation constant (Kd)), 9 nM; on CRBP-1, 12 nM. For the same compound, the Vmax at retinol dehydratase [1] (all assays, with carrier protein, n=5) stood at 490±50 pmoles AR min^-1 enzyme; at retinol dehydratase [1] (native retinol dehydratase 0.1 μg/assay, 3H-retinol, representative experiment, non-linear regression) it was 530 pmol/mg/min. In addition, the “time from the start of activation to entry of the S phase” value in the test on NIH 3T3 cells (setting [4]) was determined as 16 h. In addition, the “activation of growth arrested cells (thymidine incorporation over 24 hours)” value in the test with NIH 3T3 cells is recorded as “activated the cells at least as well as serum”. In the test on NIH 3T3 cells, the “concentrations that activate resting 3T3 cells (dose-response)” value is “submicromolar”.
With `CC1=CCCC(C)(C)C1=C/C=C(C)/C=C/C=C(\C)C(O)CO` (stereo not shown) [14-HRR, 14-hydroxy-4,14-retro-retinol], in the test with NIH 3T3 cells (setting [4]), the “time from the start of activation to entry of the S phase” value was determined as 16 h. Also, in the test on NIH 3T3 cells, the “activation of growth arrested cells (thymidine incorporation over 24 hours)” value is given as “activated the cells at least as well as serum” and the “concentrations that activate resting 3T3 cells (dose-response)” value is “submicromolar”.
In the case of `[N-]=[N+]=[N-]` [sodium azide], the “inhibition of cellular production of AR compared to controls” value in the test on Sf-21 cells (0.1% sodium azide treatment) is 96%.
